Format in all cases: cell-based, human
The test system of experiment [1] is LNCaP. As to the kind of experiment: Pan-caspase detection (FAM-VAD-FMK, confocal). Particulars: 24 h DEFB1 (hBD-1) induction.
For another experiment, the system named is DU145. As to the kind of experiment: Acridine orange/ethidium bromide membrane integrity. Here is the method: (§1) Analysis of Membrane Permeability: Acridine orange (AO)/ethidium bromide (EtBr) dual staining was performed to identify changes in cell membrane integrity, as well as apoptotic cells by staining the condensed chromatin. AO stains viable cells as well as early apoptotic cells, whereas EtBr stains late stage apoptotic cells that have lost […]. Briefly, cells were seeded into 2 chamber culture slides (BD Falcon, USA). Cells transfected with empty pIND plasmid/pvgRXR or pIND DEFB1/pvgRXR were induced for 24 or 48 h with media containing 10 μM Ponasterone A. Control cells were provided fresh media at 24 and 48 h. In order to determine the effect of PAX2 inhibition on membrane integrity, separate culture slides containing DU145, PC3 and LNCaP were treated with PAX2 siRNA and incubated for 4 days. Following this, cells were washed once with PBS and stained with 2 ml of a mixture (1:1) of AO (Sigma, USA) and EtBr (Promega, USA) (5 ug/ml) solution for 5 min. Following staining, the cells were again washed with PBS. Fluorescence was viewed by a Zeiss LSM 5 Pascal Vario 2 Laser Scanning Confocal Microscope (Carl Zeiss Jena, Germany). The excitation color wheel contain BS505-530 (green) and LP560 (red) filter blocks which allowed for the separation of emitted green light from AO into the green channel and red light from EtBr into the red channel. The laser power output and gain control settings within each individual experiment were identical between control and DEFB1 induced cells. The excitation was provided by a Kr/Ar mixed gas laser at wavelengths of 543 nm for AO and 488 nm for EtBr. Slides were analyzed under 40× magnification and digital images were stored as uncompressed TIFF files and exported into Photoshop CS software (Adobe Systems, San Jose, Calif.) for image processing and hard copy presentation.
(§2) Analysis of membrane integrity: Acridine orange (AO)/ethidium bromide (EtBr) dual staining was performed to identify changes in cell membrane integrity, as well as apoptotic cells by staining the condensed chromatin. AO stains viable cells and early apoptotic cells, whereas EtBr stains late stage apoptotic cells that have compromised membranes. Briefly, PC3, DU145 and LNCaP cells were seeded into 2-chamber culture slides (BD Falcon). Cells transfected with empty plasmid or hBD-1 plasmid were induced for 24 or 48 h with media containing 10 μM Pon A, while control cells received fresh growth media at each time point. After induction, cells were washed once with PBS and stained with 2 ml of a mixture (1:1) of AO (Sigma, St. Louis, Mo.) and EtBr (Promega) (5 μg/ml) solution for 5 min and were again washed with PBS.
(§3) Fluorescence was viewed by a Zeiss LSM 5 Pascal Vario 2 Laser Scanning Confocal Microscope (Carl Zeiss). The excitation color wheel contains BS505-530 (green) and LP560 (red) filter blocks which allowed for the separation of emitted green light from AO into the green channel and red light from EtBr into the red channel. The laser power output and gain control settings within each individual experiment were identical between control and hBD-1 induced cells. The excitation was provided by a Kr/Ar mixed gas laser at wavelengths of 543 nm for AO and 488 nm for EtBr. Slides were analyzed under 40× magnification and digital images were stored as uncompressed TIFF files and exported into Photoshop CS software (Adobe Systems) for image processing and hard copy presentation. […]

Experiment [2] deals with LNCaP. Described as above. The following applies: 48 h hBD-1 induction. Here is the method: as §1, §2, §3
In the next experiment the test system is PC3. As to the kind of experiment: Pan-caspase detection (FAM-VAD-FMK, confocal). The following applies: PC3, 24 h DEFB1 induction. Here is the method: Detection of caspase activity in the prostate cancer cell lines was performed using APO LOGIX™ Carboxyfluorescin Caspase detection kit (Cell Technology, Mountain View, Calif.). Active caspases were detected through the use of a FAM-VAD-FMK inhibitor that irreversibly binds to active caspases. Briefly, DU 145 and PC3 cells (1.5-3×10^5) containing the DEFB1 expression system were plated in 35 mm glass bottom microwell dishes (Matek, Ashland, Mass.) and treated for 24 hours with media only or with media containing PonA as previously described. Next, 10 μl of a 30× working dilution of carboxyfluorescein labeled peptide fluoromethyl ketone (FAM-VAD-FMK) was added to 300 μl of media and added to each 35 mm dish. Cells were then incubated for 1 hour at 37° C. under 5% CO2. […] The fluorescent signal was analyzed using a confocal microscope (Zeiss LSM 5 Pascal) and a 63×DIC oil lens with a Vario 2 RGB Laser Scanning Module.
Pan-Caspase Detection: Detection of caspase activity in the prostate cancer cell lines was performed using APO LOGIX™ Carboxyfluorescin Caspase detection kit (Cell Technology, Mountain View, Calif.). Active caspases were detected through the use of a FAM-VAD-FMK inhibitor that irreversibly binds to active caspases. […] The fluorescent signal was analyzed using a confocal microscope (Zeiss LSM 5 Pascal) and a 63×DIC oil lens with a Vario 2 RGB Laser Scanning Module. […]

Entries after “also recorded” stand apart in the source; their conditions may differ.

In the case of “DEFB1: human beta defensin-1 expressed from the ecdysone inducible pIND/DEFB1 construct, induced with Ponasterone A (DHYNCVSSGGQCLYSACPIFTKIQGTCYRGKAKCCK; UniProt P60022 33-68, looked up)”, the caspase activity entry in the experiment on LNCaP [1] is reported as “No caspase activity was detected; also recorded: no green staining”; in the experiment on LNCaP [1] (listed as hBD-1) it was “no green staining”; with PC3, “revealed caspase activity; also recorded: green staining”. The “membrane integrity (AO/EtBr staining)” value is “accumulation of EtBr in the cytoplasm” in the experiment with DU145 (DU145, 24 h DEFB1 (hBD-1) induction); “condensed nuclei and appeared yellow” in the experiment with DU145 (DU145, 48 h DEFB1 (hBD-1) induction); “no observable alterations to membrane integrity” in the experiment on LNCaP [2].
